Experimental data from patent US10772886B2, “CXCR-2 inhibitors for treating crystal arthropathy disorders” (ARDEA BIOSCIENCES, INC., priority 2016, dated 2020).

Tests used:
Type in all cases: in vivo
[1] = system: rat air pouch model of crystal-induced arthropathy (MSU); assay: Rat air pouch model, Example 6 (Compounds 2, 3 and 4)
Method: (§1) Sodium hydroxide (40 g, Fisher Scientific) was dissolved in de-ionized water (100 mL, dH2O) to provide a 10N solution. Uric acid (16 g, Sigma) was added to de-ionized water (3400 mL) containing sodium hydroxide solution (11.8 mL, 10N) and heated to 60° C. with constant stirring. […] The resulting clear solution was cooled to 4-8° C., resulting in the formation of crystals, which were isolated by filtration, washed three times with de-ionized wa[…]) and dried at 37° C. The dried mono sodium urate crystals were sifted into an air-tight container for storage. […] Methylcellulose (0.4 g, Sigma) was dissolved in de-ionized water (100 mL) to provide a 0.4% solution used as vehicle. […] Test compounds were suspended in vehicle to provide the desired concentrations, and diluted accordingly. […] Male Sprague-Dawley rats (Charles River Laboratories, 160-180 g) were received, individually examined and housed in cages of five rats each. The animals were in apparent good health with no clinical signs of disease or distress. The rats were placed in quarantine with daily inspections, ear notched for identification purposes and shaved at the nape of the neck. The rats were anesthetized (isoflurane), and the nape of the neck was cleansed with 70% isopropanol (Butler Animal Health Supply) followed by povidone-iodine solution (Ricca Chemical Co.). Sterile air (30 mL, 0.2 μm, Millipore) was injected subcutaneously using a 23 G×11⁄2 inch needle fixed to a 30 mL syringe. The rats were returned to routine housing with no adverse reactions observed. The rats were anesthetized (isoflurane), and the nape of the neck was cleansed with 70% isopropanol (Butler Animal Health Supply) followed by povidone-iodine solution (Ricca Chemical Co.). Sterile air (15 mL, 0.11 μm, Millipore) was injected subcutaneously using a 23 G×11⁄2 inch needle fixed to a 20 mL syringe. The rats were returned to routine housing with no adverse reactions observed. The rats were weighed and sorted into treatment groups based on average body weight. As appropriate, the rats were dosed orally with test compound or vehicle (saline alone). […] Thirty minutes after SC injection or two hours after PO dosing, MSU (15 mL) was injected into the air pouch using an 18 G×2 inch needle fitted to a 20 mL syringe. Control group was injected with 15 mL sterile saline (vehicle). The injection sites were closed (collodion, Macron) and the rats returned to their cages with no adverse effects observed. Four hours after MSU/saline injection, the rats were anesthetized and heparinized saline (5 mL, 10 U/mL) was injected into the air pouch. […] An aliquot of the exudate was transferred to green Eppendorf tubes for total white blood cell (WBC) measurement. After allowing the MSU crystals to settle out for ten minutes, an aliquot of the exudate was transferred to heparinized microtainer tubes (Becton Dickinson) for differential white blood cell counts. The remainder of the exudate was centrifuged and an aliquot of the supernatants was dispensed to labeled clear Eppendorf tubes and stored at -80° C. The rats were exsanguinated into pre-chilled serum separator tubes, processed to serum, and 0.5 mL aliquot was stored at -80° C. in labeled Eppendorf tubes. […] [table]

[2] = system: rat air pouch model of crystal-induced arthropathy (MSU); assay: Rat air pouch model, Example 7 (Compounds 3 and 4 in combination with colchicine)
Method: as §1

[3] = system: rat air pouch model of crystal-induced arthropathy (MSU); assay: Rat air pouch therapeutic model, Example 10 (Compounds 3 and 4 in combination with colchicine)
Method: Sodium hydroxide (40 g, Fisher Scientific) was dissolved in de-ionized water (100 mL, dH2O) to provide a 10N solution. Uric acid (16 g, Sigma) was added to de-ionized water (3400 mL) containing sodium hydroxide solution (11.8 mL, 10N) and heated to 60° C. with constant stirring. […] The resulting clear solution was cooled to 4-8° C., resulting in the formation of crystals, which were isolated by filtration, washed three times with de-ionized wa[…]) and dried at 37° C. The dried mono sodium urate crystals were sifted into an air-tight container for storage. […] Methylcellulose (0.4 g, Sigma) was dissolved in de-ionized water (100 mL) to provide a 0.4% solution used as vehicle. […] Test compounds were suspended in vehicle to provide the desired concentrations, and diluted accordingly. […] The animals were in apparent good health with no clinical signs of disease or distress. The rats were placed in quarantine with daily inspections, ear notched for identification purposes and shaved at the nape of the neck. The rats were anesthetized (isoflurane), and the nape of the neck was cleansed with 70% isopropanol (Butler Animal Health Supply) followed by povidone-iodine solution (Ricca Chemical Co.). Sterile air (30 mL, 0.2 μm, Millipore) was injected subcutaneously using a 23 G×11⁄2 inch needle fixed to a 30 mL syringe. The rats were returned to routine housing with no adverse reactions observed. The rats were anesthetized (isoflurane), and the nape of the neck was cleansed with 70% isopropanol (Butler Animal Health Supply) followed by povidone-iodine solution (Ricca Chemical Co.). Sterile air (15 mL, 0.11 μm, Millipore) was injected subcutaneously using a 23 G×11⁄2 inch needle fixed to a 20 mL syringe. The rats were returned to routine housing with no adverse reactions observed. The rats were weighed and sorted into treatment groups based on average body weight. As appropriate, the rats were dosed orally with test compound or vehicle (saline alone). […] Control group was injected with 15 mL sterile saline (vehicle). The injection sites were closed (collodion, Macron) and the rats returned to their cages with no adverse effects observed. Four hours after MSU/saline injection, the rats were anesthetized and heparinized saline (5 mL, 10 U/mL) was injected into the air pouch. […] An aliquot of the exudate was transferred to green Eppendorf tubes for total white blood cell (WBC) measurement. After allowing the MSU crystals to settle out for ten minutes, an aliquot of the exudate was transferred to heparinized microtainer tubes (Becton Dickinson) for differential white blood cell counts. The remainder of the exudate was centrifuged and an aliquot of the supernatants was dispensed to labeled clear Eppendorf tubes and stored at -80° C. The rats were exsanguinated into pre-chilled serum separator tubes, processed to serum, and 0.5 mL aliquot was stored at -80° C. in labeled Eppendorf tubes. […] 140 rats were used, divided into 14 groups of 10 animals, as follows: [table]

[4] = 3.0 umol/kg PO + Colchicine 0.1 mpk SC, Group 10
[5] = 10 μmol/kg PO + Colchicine 0.3 mg/kg SC, Groups 9, 14
[6] = 1 umol/kg PO + Colchicine 0.1 mpk SC, Group 9

SMILES: C[C@@H](Oc1cc(NS(=O)(=O)N2CCC2)nc(SCc2cccc(F)c2F)n1)[C@@H](O)CO [Compound 3, N-(2-((2,3-difluorobenzyl)thio)-6-(((2R,3S)-3,4-dihydroxybutan-2-yl)oxy)pyrimidin-4-yl)azetidine-1-sulfonamide]
- Avg Exudate Vol ([1]; 0.3 umol/kg PO, Group 5): 10.7 mL
- Avg Total WBC ([1]; 0.3 umol/kg PO, Group 5): 180 ×10^6
- Neutrophils ([1]; 0.3 umol/kg PO, Group 5): 155 ×10^6
- Avg Exudate Vol ([1]; 3.0 umol/kg PO, Group 6): 10 mL
- Avg Total WBC ([1]; 3.0 umol/kg PO, Group 6): 190 ×10^6
- Neutrophils ([1]; 3.0 umol/kg PO, Group 6): 121 ×10^6
- Avg Exudate Vol ([1]; 30 umol/kg PO, Groups 7, 9): 7 mL
- Avg Total WBC ([1]; 30 umol/kg PO, Groups 7, 9): 96 ×10^6
- Neutrophils ([1]; 30 umol/kg PO, Groups 7, 9): 44.6 ×10^6
- Avg Exudate Vol [2, 4]: 7.8 mL
- Avg Total WBC [2, 4]: 120 ×10^6
- Neutrophils [2, 4]: 159 ×10^6
- Avg Exudate Vol ([2]; 3 umol/kg PO, Group 5): 11.1 mL
- Avg Total WBC ([2]; 3 umol/kg PO, Group 5): 180 ×10^6
- Neutrophils ([2]; 3 umol/kg PO, Group 5): 133 ×10^6
- Avg Exudate Vol ([2]; 30 umol/kg PO, Groups 6, 8): 7.4 mL
- Avg Total WBC ([2]; 30 umol/kg PO, Groups 6, 8): 110 ×10^6
- Neutrophils ([2]; 30 umol/kg PO, Groups 6, 8): 65.2 ×10^6
- Avg Exudate Vol ([3]; 3 μmol/kg PO, Group 10): 11.5 mL
- Avg Tot WBC ([3]; 3 μmol/kg PO, Group 10): 120 ×10^6
- Neutrophils ([3]; 3 μmol/kg PO, Group 10): 71.1 ×10^6
- Avg Exudate Vol [3, 5]: 9.5 mL
- Avg Tot WBC [3, 5]: 68 ×10^6
- Neutrophils [3, 5]: 72.6 ×10^6
- Avg Exudate Vol ([3]; 10 μmol/kg PO, Groups 6, 11): 10.0 mL
- Avg Tot WBC ([3]; 10 μmol/kg PO, Groups 6, 11): 84 ×10^6
- Neutrophils ([3]; 10 μmol/kg PO, Groups 6, 11): 69.2 ×10^6
- Avg Exudate Vol ([3]; 30 μmol/kg PO, Groups 7, 12): 8.8 mL
- Avg Tot WBC ([3]; 30 μmol/kg PO, Groups 7, 12): 59 ×10^6
- Neutrophils ([3]; 30 μmol/kg PO, Groups 7, 12): 30.7 ×10^6
- Avg Exudate Vol ([3]; 100 μmol/kg PO, Groups 8, 13): 6.9 mL
- Avg Tot WBC ([3]; 100 μmol/kg PO, Groups 8, 13): 40 ×10^6
- Neutrophils ([3]; 100 μmol/kg PO, Groups 8, 13): 35.1 ×10^6

SMILES: COc1cc2c(c(OC)c1OC)-c1ccc(OC)c(=O)cc1[C@@H](NC(C)=O)CC2 [Colchicine, COLCHICINE, reference compound]
- Avg Exudate Vol ([1]; 1 mpk SC, Group 4): 5.8 mL
- Avg Total WBC ([1]; 1 mpk SC, Group 4): 17 ×10^6
- Neutrophils ([1]; 1 mpk SC, Group 4): 9.9 ×10^6
- Avg Exudate Vol ([2]; 0.1 mpk SC, Group 3): 12 mL
- Avg Total WBC ([2]; 0.1 mpk SC, Group 3): 240 ×10^6
- Neutrophils ([2]; 0.1 mpk SC, Group 3): 205 ×10^6
- Avg Exudate Vol ([2]; 1.0 mpk SC, Group 4): 6 mL
- Avg Total WBC ([2]; 1.0 mpk SC, Group 4): 22 ×10^6
- Neutrophils ([2]; 1.0 mpk SC, Group 4): 10.8 ×10^6
- Avg Exudate Vol ([3]; 0.3 mpk SC, Group 3): 11.7 mL
- Avg Tot WBC ([3]; 0.3 mpk SC, Group 3): 180 ×10^6
- Neutrophils ([3]; 0.3 mpk SC, Group 3): 71.5 ×10^6
- Avg Exudate Vol ([3]; 0.5 mpk SC, Group 4): 8.9 mL
- Avg Tot WBC ([3]; 0.5 mpk SC, Group 4): 35 ×10^6
- Neutrophils ([3]; 0.5 mpk SC, Group 4): 70.7 ×10^6
- Avg Exudate Vol ([3]; 1.0 mpk SC, Group 5): 7.3 mL
- Avg Tot WBC ([3]; 1.0 mpk SC, Group 5): 9.8 ×10^6
- Neutrophils ([3]; 1.0 mpk SC, Group 5): 25.9 ×10^6

SMILES: CC[C@@H](Nc1c(Nc2cccc(C(=O)N(C)C)c2O)c(=O)c1=O)c1ccc(C)o1 [Compound 2, (R)-2-hydroxy-N,N-dimethyl-3-((2-((1-(5-methylfuran-2-yl)propyl)amino)-3,4-dioxocyclobut-1-en-1-yl)amino)benzamide]
- Avg Exudate Vol ([1]; 3 mpk PO, Group 3): 8.4 mL
- Avg Total WBC ([1]; 3 mpk PO, Group 3): 22 ×10^6
- Neutrophils ([1]; 3 mpk PO, Group 3): 11.8 ×10^6

SMILES: CC1CN(S(=O)(=O)Nc2cc(O[C@H](C)[C@@H](O)CO)nc(SCc3ccc(F)cc3)n2)C1 [Compound 4, N-(6-(((2R,3S)-3,4-dihydroxybutan-2-yl)oxy)-2-((4-fluorobenzyl)thio)pyrimidin-4-yl)-3-methylazetidine-1-sulfonamide]
- Avg Exudate Vol ([1]; 1.0 umol/kg PO, Group 8): 10 mL
- Avg Total WBC ([1]; 1.0 umol/kg PO, Group 8): 270 ×10^6
- Neutrophils ([1]; 1.0 umol/kg PO, Group 8): 165 ×10^6
- Avg Exudate Vol ([1]; 30 umol/kg PO, Groups 7, 9): 7 mL
- Avg Total WBC ([1]; 30 umol/kg PO, Groups 7, 9): 140 ×10^6
- Neutrophils ([1]; 30 umol/kg PO, Groups 7, 9): 95.4 ×10^6
- Avg Exudate Vol ([1]; 100 umol/kg PO, Group 10): 6.5 mL
- Avg Total WBC ([1]; 100 umol/kg PO, Group 10): 76 ×10^6
- Neutrophils ([1]; 100 umol/kg PO, Group 10): 48.6 ×10^6
- Avg Exudate Vol [2, 6]: 10.3 mL
- Avg Total WBC [2, 6]: 210 ×10^6
- Neutrophils [2, 6]: 179 ×10^6
- Avg Exudate Vol ([2]; 1 umol/kg PO, Group 7): 11.8 mL
- Avg Total WBC ([2]; 1 umol/kg PO, Group 7): 160 ×10^6
- Neutrophils ([2]; 1 umol/kg PO, Group 7): 121 ×10^6
- Avg Exudate Vol ([2]; 30 umol/kg PO, Groups 6, 8): 8.1 mL
- Avg Total WBC ([2]; 30 umol/kg PO, Groups 6, 8): 100 ×10^6
- Neutrophils ([2]; 30 umol/kg PO, Groups 6, 8): 69.6 ×10^6
- Avg Exudate Vol [3, 5]: 7.6 mL
- Avg Tot WBC [3, 5]: 46 ×10^6
- Neutrophils [3, 5]: 61.5 ×10^6
- Avg Exudate Vol ([3]; 10 μmol/kg PO, Groups 6, 11): 11.5 mL
- Avg Tot WBC ([3]; 10 μmol/kg PO, Groups 6, 11): 130 ×10^6
- Neutrophils ([3]; 10 μmol/kg PO, Groups 6, 11): 68.4 ×10^6
- Avg Exudate Vol ([3]; 30 μmol/kg PO, Groups 7, 12): 8.2 mL
- Avg Tot WBC ([3]; 30 μmol/kg PO, Groups 7, 12): 25 ×10^6
- Neutrophils ([3]; 30 μmol/kg PO, Groups 7, 12): 60.4 ×10^6
- Avg Exudate Vol ([3]; 100 μmol/kg PO, Groups 8, 13): 7.0 mL
- Avg Tot WBC ([3]; 100 μmol/kg PO, Groups 8, 13): 18 ×10^6
- Neutrophils ([3]; 100 μmol/kg PO, Groups 8, 13): 26.2 ×10^6
